The text below walks through data of patent US6432957B1, “Piperazine derivative” (Kowa Co., Ltd., priority 2001, dated 2002).

In the assay the test system is U937 cells adhered to HUVEC stimulated by TNFα. Nature of the assay: Inhibitory effect on cell adhesion (U937 adhesion to TNFα-stimulated HUVEC). The assay is classed as cell-based. To be noted: Homo sapiens, read-out: Inhibitory activity against cell adhesion, Percent inhibition (%); for inhibition at 1 µM: 1 μM test agent; for inhibition at 10 µM: 10 μM test agent. The procedure: (Inhibitory Effect on Cell Adhesion)
This test was conducted by reference to the method of Ross et al. (J. Biol. Chem., 267, 8537-8543 (1992)). More specifically, after human umbilical venous endothelial cells (HUVEC) were cultured on a 48-well plate to confluent growth, TNFα was added thereto. Upon elapsed time of 5 hours after the addition, U937, which is a human monocytic/histocytic cell fluorescence-labeled with PKH2 (product of Dainippon Pharmaceutical Co., Ltd.), was added in a proportion of 1×10^6 cells per well. After the plate was left at rest at room temperature for 1 hour, unadhered U937 was washed out and lysed in 1% Triton X-100 to measure a remaining fluorescence intensity (excitation wavelength: 480 nm; measuring wavelength: 530 nm). HUVEC and U937 were cultured in EGM-2 (product of Sanko Junyaku K.K.) and 10% FCS-containing RPMI1640, respectively. Each test agent was added to HUVEC upon the addition of TNFα and to U937 24 hours prior to the cell adhesion test. The inhibitory activity was calculated out according to the equation [100−(C−B)/(A−B)×100 (%)], wherein A is the number of U937 cells adhered to HUVEC stimulated by TNFα when no test agent was added, B is the number of U937 cells adhered to HUVEC not stimulated by TNFα when no test agent was added, and C is the number of U937 cells adhered to HUVEC stimulated by TNFα when the test agent was added. As control compounds, Test Compound 1 described in Japanese Patent Application Laid-Open No. 9-143075 and dilazep described in Japanese Patent Application Laid-Open No. 11-92382 were simultaneously evaluated.

Structures can show the parent of a compound that is named as a salt.

By inhibition is commonly meant the drop in the measured response relative to a control, in per cent. Turning to `COc1cc(-c2cc(CN3CCN(Cc4ccnc(-c5cc(OC)c(OC)c(OC)c5)c4)[C@@H](CC(C)C)C3=O)ccn2)cc(OC)c1OC` [Example 8, (3S)-3-(2-methylpropyl)-2-oxo-N,N′-bis[[2-(3,4,5-trimethoxyphenyl)pyridin-4-yl]methyl]piperazine 2.5 hydrochloride], the inhibition at 1 µM stood at 63% and the inhibition at 10 µM turned out to be 79%.
`COc1cc(-c2cc(CN3C[C@H](C)N(Cc4ccnc(-c5cc(OC)c(OC)c(OC)c5)c4)C[C@H]3C)ccn2)cc(OC)c1OC` [Example 2, trans-N,N′-bis[[2-(3,4,5-trimethoxyphenyl)-pyridin-4-yl]methyl]-2,5-dimethylpiperazine tetrahydrochloride]: the inhibition at 1 µM was determined as 42% and the inhibition at 10 µM was determined as 64%.
On the same counts, the results for `COc1cc(-c2cc(CN3CCN(Cc4ccnc(-c5cc(OC)c(OC)c(OC)c5)c4)[C@@H](C)C3=O)ccn2)cc(OC)c1OC` [Example 5, (3S)-3-methyl-2-oxo-N,N′-bis[[2-(3,4,5-trimethoxyphenyl)pyridin-4-yl]methyl]piperazine 2.5 hydrochloride] are 51% and 85%.
The like results for `COc1cc(C(=O)OCCCN2CCCN(CCCOC(=O)c3cc(OC)c(OC)c(OC)c3)CC2)cc(OC)c1OC` [Dilazep, dilazep, reference compound] were, in that order, 12% and 25%.
On the same counts, the results for `COc1cc(-c2cc(CN3CCN(Cc4ccnc(-c5cc(OC)c(OC)c(OC)c5)c4)C(CO)C3)ccn2)cc(OC)c1OC` (centres unmarked) [Example 3, N,N′-bis[[2-(3,4,5-trimethoxyphenyl)pyridin-4-yl]methyl]-2-hydroxymethylpiperazine dimaleate] are 34% and 90%.
For `COc1cc(-c2cc(CN3CCN(Cc4ccnc(-c5cc(OC)c(OC)c(OC)c5)c4)[C@@H](C(C)C)C3=O)ccn2)cc(OC)c1OC` [Example 6, (3S)-3-isopropyl-2-oxo-N,N′-bis[[2-(3,4,5-trimethoxyphenyl)pyridin-4-yl]methyl]piperazine sesqui-hydrochloride], the inhibition at 1 µM is 63% and the inhibition at 10 µM turned out to be 77%.
As for `COc1cc(-c2cc(CN3CCN(Cc4ccnc(-c5cc(OC)c(OC)c(OC)c5)c4)[C@H](C(C)C)C3=O)ccn2)cc(OC)c1OC` [Example 7, (3R)-3-isopropyl-2-oxo-N,N′-bis[[2-(3,4,5-trimethoxyphenyl)pyridin-4-yl]methyl]piperazine tri-hydrochloride], the inhibition at 1 µM came to 51% and the inhibition at 10 µM worked out at 70%.
On the same counts, the results for `COc1cc(-c2cc(CN3C[C@@H](C)N(Cc4ccnc(-c5cc(OC)c(OC)c(OC)c5)c4)[C@@H](C)C3)ccn2)cc(OC)c1OC` [Example 1, cis-N,N′-bis[[2-(3,4,5-trimethoxyphenyl)pyridin-4-yl]methyl]-2,6-dimethylpiperazine tetrahydrochloride] are 76% and 78%.
On the same counts, the results for `COc1cc(-c2cc(CN3CCN(Cc4ccnc(-c5cc(OC)c(OC)c(OC)c5)c4)[C@@H](Cc4ccccc4)C3=O)ccn2)cc(OC)c1OC` [Example 9, (3S)-3-benzyl-2-oxo-N,N′-bis[[2-(3,4,5-trimethoxyphenyl)pyridin-4-yl]methyl]piperazine sesqui-hydrochloride] are 38% and 86%.
Regarding `COc1cc(-c2cc(CN3CCN(Cc4ccnc(-c5cc(OC)c(OC)c(OC)c5)c4)C(=O)C3)ccn2)cc(OC)c1OC` [Example 4, 2-oxo-N,N′-bis[[2-(3,4,5-trimethoxyphenyl)-pyridin-4-yl]methyl]piperazine 2.5 hydrochloride], the inhibition at 1 µM is 60% and the inhibition at 10 µM turned out to be 79%.
